The structures appear in SMILES notation.

Experimental findings from US7572801B2, “Pyridopyrimidinone derivatives which are HM74A agonists” (Hoffmann-La Roche Inc., priority 2007, dated 2009) are described below.

T1 sequence (Q8TDS4 whole entry): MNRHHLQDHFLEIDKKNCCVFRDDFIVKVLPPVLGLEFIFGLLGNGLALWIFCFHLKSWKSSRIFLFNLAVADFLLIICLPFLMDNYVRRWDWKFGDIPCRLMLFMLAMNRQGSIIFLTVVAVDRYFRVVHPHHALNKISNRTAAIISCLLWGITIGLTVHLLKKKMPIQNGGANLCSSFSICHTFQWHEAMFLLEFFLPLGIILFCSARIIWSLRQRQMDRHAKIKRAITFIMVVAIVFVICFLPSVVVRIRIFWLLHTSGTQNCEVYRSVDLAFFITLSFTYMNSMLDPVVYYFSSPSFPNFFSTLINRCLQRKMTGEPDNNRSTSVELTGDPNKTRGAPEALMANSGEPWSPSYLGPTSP

This test has as its target T1, HM74A (Homo sapiens, UniProt Q8TDS4).
T1 construct: expressed in transfected cells; host or cells: HEK-293, stably transfected (pcDNA3.1 vectors), co-expressing chimeric G protein Gqi9
The test is described as follows: Secondary fluorescent calcium indicator assay (FLIPR). It counts as cell-based. Conditions: stable transfected HEK-293 cells expressing HM74A and chimeric G protein Gqi9. How it is done: Secondary Fluorescent Calcium Indicator Assay (FLIPR)
HEK-293 cells were grown in tissue culture medium (DMEM/Nut mix F12 Medium with Glutamax I (Invitrogen), containing 10% FBS) at 37° C. in a 5% CO2 atmosphere. These cells were cultured in 6-well dishes at 3×10^5 cells/well and double transfected with DNA vectors (pcDNA3.1, Invitrogen) expressing either HM74A or HM74 and the chimeric G protein Gqi9. Two days after transfection the wells were combined and plated in 150 cm^2 flasks, in the presence of 50 μg/ml Hygromycin (Invitrogen) and 500 μg/ml Geneticin (Gibco). Fourteen days after plating, colonies were picked, expanded and analyzed for expression using a functional assay (FLIPR). Stable transfected HEK-293 cells expressing either HM74A or HM74 and the chimeric G protein Gqi9 were plated at 50,000 cells/well in black 96-well plates with clear bottom (Costar) and cultured to confluency overnight in growth media (DMEM/Nut mix F12 Medium with Glutamax I (Invitrogen), containing 10% FBS) at 37° C. in a humidified cell incubator containing 5% CO2. Growth media was aspirated and replaced with 100 μl of 1× FLIPR Calcium Assay Dye (Molecular Devices) in Hank's balanced salt solution (HBSS) containing 10 mM HEPES, and […] probenecid (Sigma), for 1 hour at 37° C. Cell plates were transferred to a FLIPR unit (Molecular Devices), and 50 μl of 3× compound dilution were added. Fluorescence emissions were measured and the effects of compounds were expressed as % stimulation of maximal nicotinic acid response (100 μM). Sigmoidal curves were fitted using the XLfit3 program (ID Business Solutions Ltd. UK) and EC50 values determined.
In the case of `Cc1ccccc1OCCCOc1nc2ncccc2c(=O)[nH]1` [Example 58, 2-(3-o-Tolyloxy-propoxy)-3H-pyrido[2,3-d]pyrimidin-4-one], the concentration for a half-maximal effect (EC50) – broadly, the concentration at which the effect is half-maximal – is 0.426 µM.

Consider `COc1ccc(CCCOc2nc3ncccc3c(=O)[nH]2)cc1` [Example 28, 2-[3-(4-Methoxy-phenyl)-propoxy]-3H-pyrido[2,3-d]pyrimidin-4-one], for which the EC50 was 2.71 µM. The value for `O=c1[nH]c(COc2ccccc2)nc2ncccc12` [Example 2, 2-Phenoxymethyl-3H-pyrido[2,3-d]pyrimidin-4-one] was 5.71 µM.
